Assay results published in patent publication US11178873B2, “Cyclic N-carboxamide compounds useful as herbicides” (FMC CORPORATION, priority 2015, dated 2021).

Key:
Assay type in all cases: in vivo
[1] = test system: pigweed (Amaranthus retroflexus); assay: Test A postemergence, pigweed; details: 0 to 100 scale, 0 no effect, 100 complete control
Source text: (§1) Seeds of plant species selected from barnyardgrass (Echinochloa crus-galli), crabgrass, large (large crabgrass, Digitaria sanguinalis), kochia (Kochia scoparia), ragweed (common ragweed, Ambrosia elatior), morningglory (Ipomoea spp.), velvetleaf (Abutilon theophrasti), ryegrass, Italian (Italian ryegrass, Lolium multiflorum), foxtail, giant (giant foxtail, Setaria faberii), wheat (Triticum aestivum), corn (Zea mays), and pigweed (Amaranthus retroflexus), were planted into a blend of loam soil and sand and treated preemergence with a directed soil spray using test chemicals formulated in a non-phytotoxic solvent mixture which included a surfactant. At the same time, plants selected from these crop and weed species and also blackgrass (Alopecurus myosuroides), and galium (catchweed bedstraw, Galium aparine), were planted in pots containing the same blend of loam soil and sand and treated with postemergence applications of test chemicals formulated in the same manner. Plants ranged in height from 2 to 10 cm and were in the one- to two-leaf stage for the postemergence treatment. Treated plants and untreated controls were maintained in a greenhouse for approximately 10 d, after which time all treated plants were compared to untreated controls and visually evaluated for injury. Plant response ratings, summarized in Table A, are based on a 0 to 100 scale where 0 is no effect and 100 is complete control. A dash (-) response means no test result.

[2] = test system: wheat (Triticum aestivum); assay: Test A postemergence, wheat; details: 0 to 100 scale, 0 no effect, 100 complete control
Source text: as §1

[3] = test system: ducksalad (Heteranthera limosa); assay: Test B flooded paddy test, ducksalad; details: Flood, scale 0 to 100 (0 no effect, 100 complete control), 13 to 15 d
Experimental: (§2) Plant species in the flooded paddy test selected from rice (Oryza sativa), sedge, umbrella (small-flower umbrella sedge, Cyperus difformis), ducksalad (Heteranthera limosa), and barnyardgrass (Echinochloa crus-galli) were grown to the 2-leaf stage for testing. At time of treatment, test pots were flooded to 3 cm above the soil surface, treated by application of test compounds directly to the paddy water, and then maintained at that water depth for the duration of the test. Treated plants and controls were maintained in a greenhouse for 13 to 15 d, after which time all species were compared to controls and visually evaluated. Plant response ratings, summarized in Table B, are based on a scale of 0 to 100 where 0 is no effect and 100 is complete control. A dash (-) response means no test result.

[4] = test system: barnyardgrass (Echinochloa crus-galli); assay: Test B flooded paddy test, barnyardgrass; details: Flood, scale 0 to 100 (0 no effect, 100 complete control), 13 to 15 d
Experimental: as §2

[5] = test system: ryegrass, Italian (Italian ryegrass, Lolium multiflorum); assay: Test A preemergence, ryegrass, Italian; details: 0 to 100 scale, 0 no effect, 100 complete control
Source text: as §1

[6] = test system: galium (catchweed bedstraw, Galium aparine); assay: Test A postemergence, galium; details: 0 to 100 scale, 0 no effect, 100 complete control
Source text: as §1

[7] = test system: foxtail, giant (giant foxtail, Setaria faberii); assay: Test A postemergence, foxtail, giant; details: 0 to 100 scale, 0 no effect, 100 complete control
Source text: as §1

[8] = test system: ryegrass, Italian (Italian ryegrass, Lolium multiflorum); assay: Test A postemergence, ryegrass, Italian; details: 0 to 100 scale, 0 no effect, 100 complete control
Source text: as §1

kochia (Kochia scoparia) [9] = assay: Test A postemergence, kochia; details: 0 to 100 scale, 0 no effect, 100 complete control
Source text: as §1

rice (Oryza sativa) = assay: Test B flooded paddy test, rice; details: Flood, scale 0 to 100 (0 no effect, 100 complete control), 13 to 15 d
Experimental: as §2

[10] = test system: pigweed (Amaranthus retroflexus); assay: Test A preemergence, pigweed; details: 0 to 100 scale, 0 no effect, 100 complete control
Source text: as §1

[11] = test system: ragweed (common ragweed, Ambrosia elatior); assay: Test A postemergence, ragweed; details: 0 to 100 scale, 0 no effect, 100 complete control
Source text: as §1

corn (Zea mays) = assay: Test A postemergence, corn; details: 0 to 100 scale, 0 no effect, 100 complete control
Source text: as §1

[12] = test system: ragweed (common ragweed, Ambrosia elatior); assay: Test A preemergence, ragweed; details: 0 to 100 scale, 0 no effect, 100 complete control
Source text: as §1

[13] = test system: blackgrass (Alopecurus myosuroides); assay: Test A postemergence, blackgrass; details: 0 to 100 scale, 0 no effect, 100 complete control
Source text: as §1

[14] = test system: barnyardgrass (Echinochloa crus-galli); assay: Test A preemergence, barnyardgrass; details: 0 to 100 scale, 0 no effect, 100 complete control
Source text: as §1

[15] = test system: sedge, umbrella (small-flower umbrella sedge, Cyperus difformis); assay: Test B flooded paddy test, sedge, umbrella; details: Flood, scale 0 to 100 (0 no effect, 100 complete control), 13 to 15 d
Experimental: as §2

[16] = test system: barnyardgrass (Echinochloa crus-galli); assay: Test A postemergence, barnyardgrass; details: 0 to 100 scale, 0 no effect, 100 complete control
Source text: as §1

kochia (Kochia scoparia) [17] = assay: Test A preemergence, kochia; details: 0 to 100 scale, 0 no effect, 100 complete control
Source text: as §1

[18] = test system: foxtail, giant (giant foxtail, Setaria faberii); assay: Test A preemergence, foxtail, giant; details: 0 to 100 scale, 0 no effect, 100 complete control
Source text: as §1

O=C1NCC(c2ccc(F)c(F)c2)N1C(=O)Nc1ccccc1Cl (stereo not drawn) [Compound 9]
0: Plant response rating, Pigweed ([1]; 125 g ai/ha) | Plant response rating, Pigweed ([1]; 500 g ai/ha) | Plant response rating, Wheat ([2]; 125 g ai/ha) | Plant response rating, Wheat ([2]; 500 g ai/ha) | Plant response rating, Ducksalad ([3]; 500 g ai/ha) | Plant response rating, Barnyardgrass ([4]; 500 g ai/ha) | Plant response rating, Ryegrass, Italian ([5]; 125 g ai/ha) | Plant response rating, Ryegrass, Italian ([5]; 500 g ai/ha) | Plant response rating, Galium ([6]; 125 g ai/ha) | Plant response rating, Galium ([6]; 500 g ai/ha) | Plant response rating, Foxtail, Giant ([7]; 125 g ai/ha) | Plant response rating, Foxtail, Giant ([7]; 500 g ai/ha) | Plant response rating, Ryegrass, Italian ([8]; 125 g ai/ha) | Plant response rating, Ryegrass, Italian ([8]; 500 g ai/ha) | Plant response rating, Kochia (kochia (Kochia scoparia) [9]; 125 g ai/ha) | Plant response rating, Kochia (kochia (Kochia scoparia) [9]; 500 g ai/ha) | Plant response rating, Rice (rice (Oryza sativa); 500 g ai/ha) | Plant response rating, Pigweed ([10]; 125 g ai/ha) | Plant response rating, Pigweed ([10]; 500 g ai/ha) | Plant response rating, Ragweed ([11]; 125 g ai/ha) | Plant response rating, Ragweed ([11]; 500 g ai/ha) | Plant response rating, Corn (corn (Zea mays); 125 g ai/ha) | Plant response rating, Corn (corn (Zea mays); 500 g ai/ha) | Plant response rating, Ragweed ([12]; 125 g ai/ha) | Plant response rating, Ragweed ([12]; 500 g ai/ha) | Plant response rating, Blackgrass ([13]; 125 g ai/ha) | Plant response rating, Blackgrass ([13]; 500 g ai/ha) | Plant response rating, Barnyardgrass ([14]; 125 g ai/ha) | Plant response rating, Barnyardgrass ([14]; 500 g ai/ha) | Plant response rating, Sedge, Umbrella ([15]; 500 g ai/ha) | Plant response rating, Barnyardgrass ([16]; 125 g ai/ha) | Plant response rating, Barnyardgrass ([16]; 500 g ai/ha) | Plant response rating, Kochia (kochia (Kochia scoparia) [17]; 125 g ai/ha) | Plant response rating, Kochia (kochia (Kochia scoparia) [17]; 500 g ai/ha) | Plant response rating, Foxtail, Giant ([18]; 125 g ai/ha) | Plant response rating, Foxtail, Giant ([18]; 500 g ai/ha)

O=C1NCC(c2ccc(F)c(F)c2)N1C(=O)Nc1ccccc1 (stereo not drawn) [Compound 7]
0: Plant response rating, Pigweed ([1]; 125 g ai/ha) | Plant response rating, Pigweed ([1]; 500 g ai/ha) | Plant response rating, Wheat ([2]; 125 g ai/ha) | Plant response rating, Wheat ([2]; 500 g ai/ha) | Plant response rating, Ducksalad ([3]; 1000 g ai/ha) | Plant response rating, Barnyardgrass ([4]; 1000 g ai/ha) | Plant response rating, Ryegrass, Italian ([5]; 125 g ai/ha) | Plant response rating, Ryegrass, Italian ([5]; 500 g ai/ha) | Plant response rating, Galium ([6]; 125 g ai/ha) | Plant response rating, Galium ([6]; 500 g ai/ha) | Plant response rating, Foxtail, Giant ([7]; 125 g ai/ha) | Plant response rating, Foxtail, Giant ([7]; 500 g ai/ha) | Plant response rating, Ryegrass, Italian ([8]; 125 g ai/ha) | Plant response rating, Ryegrass, Italian ([8]; 500 g ai/ha) | Plant response rating, Kochia (kochia (Kochia scoparia) [9]; 125 g ai/ha) | Plant response rating, Kochia (kochia (Kochia scoparia) [9]; 500 g ai/ha) | Plant response rating, Rice (rice (Oryza sativa); 1000 g ai/ha) | Plant response rating, Pigweed ([10]; 125 g ai/ha) | Plant response rating, Pigweed ([10]; 500 g ai/ha) | Plant response rating, Ragweed ([11]; 125 g ai/ha) | Plant response rating, Ragweed ([11]; 500 g ai/ha) | Plant response rating, Corn (corn (Zea mays); 125 g ai/ha) | Plant response rating, Corn (corn (Zea mays); 500 g ai/ha) | Plant response rating, Ragweed ([12]; 125 g ai/ha) | Plant response rating, Ragweed ([12]; 500 g ai/ha) | Plant response rating, Blackgrass ([13]; 125 g ai/ha) | Plant response rating, Blackgrass ([13]; 500 g ai/ha) | Plant response rating, Barnyardgrass ([14]; 125 g ai/ha) | Plant response rating, Barnyardgrass ([14]; 500 g ai/ha) | Plant response rating, Sedge, Umbrella ([15]; 1000 g ai/ha) | Plant response rating, Barnyardgrass ([16]; 125 g ai/ha) | Plant response rating, Barnyardgrass ([16]; 500 g ai/ha) | Plant response rating, Kochia (kochia (Kochia scoparia) [17]; 125 g ai/ha) | Plant response rating, Kochia (kochia (Kochia scoparia) [17]; 500 g ai/ha) | Plant response rating, Foxtail, Giant ([18]; 125 g ai/ha) | Plant response rating, Foxtail, Giant ([18]; 500 g ai/ha)
